Assay results published in paper PMC11224111, “Optimizing the pharmacokinetics of an ^211At-labeled RGD peptide with an albumin-binding moiety via the administration of an albumin-binding inhibitor” (European Journal of Nuclear Medicine and Molecular Imaging, 2024).
“And” between values parts separate entries of the source, which are not always exact repeats. Identical values can stand only once.

Tested on: U-87 MG tumor-bearing mice
Assay: Biodistribution in U-87 MG tumor-bearing mice with IPBA
Type: in vivo
Details: IPBA 10 eq at 1 h postinjection
Method: To prepare tumor-bearing mice, 5 × 10^6 of U-87 MG cells were subcutaneously inoculated into the right shoulder of 4-week-old female BALB/c nude mice (13–15 g, Japan SLC, Inc.) as previously reported. At approximately 10-day postinoculation of U-87 MG cells, they were used for each experiment after tumor size reached 0.3–0.5 cm^3.
At 1-h postinjection of [^211At]1 (37 kBq) and [^125I]2 (37 kBq), IPBA (1.9 mg, 6.1 µmol) was administered at 10 molar equivalent of blood albumin. Mice were sacrificed at 65-, 70-min, 2-, 4-, 12-, and 24-h postinjection of [^211At]1 and [^125I]2. Tissues of interest were removed and weighed, and radioactivity counts of ^125I and ^211At were determined with an auto well gamma counter (ARC-7010; Hitachi Medical, Ltd., Tokyo, Japan) and corrected for background radiation. To determine the radioactivity excreted from the body for 24 h, mice were housed in metabolic cages (Metabolica, Sugiyama-Gen Co., Ltd., Tokyo, Japan).

Ga-DOTA-K([^211At]APBA)-c(RGDfK) [[^211At]1]
Radioactivity, Blood (65 min after administration): 13.96 (0.18) % injected activity per gram
Radioactivity, Bone (65 min after administration): 4.07 (0.26) % injected activity per gram
Radioactivity, Brain (65 min after administration): 0.36 (0.00) % injected activity per gram
Radioactivity, Heart (65 min after administration): 5.28 (0.29) % injected activity per gram
Radioactivity, Kidney (65 min after administration): 16.15 (1.45) % injected activity per gram
Radioactivity, L. intestine (65 min after administration): 3.05 (0.10) % injected activity per gram
Radioactivity, Liver (65 min after administration): 5.20 (0.50) % injected activity per gram
Radioactivity, Lung (65 min after administration): 10.81 (0.60) % injected activity per gram
Radioactivity, Muscle (65 min after administration): 2.80 (0.39) % injected activity per gram
Radioactivity, Neck (65 min after administration): 0.04 (0.02) % injected activity
Radioactivity, Pancreas (65 min after administration): 2.82 (0.16) % injected activity per gram
Radioactivity, S. intestine (65 min after administration): 4.69 (0.26) % injected activity per gram
Radioactivity, Spleen (65 min after administration): 4.06 (0.21) % injected activity per gram
Radioactivity, Stomach (65 min after administration): 1.12 (0.28) % injected activity
Radioactivity, Tumor (65 min after administration): 10.92 (0.34) % injected activity per gram
Radioactivity, Blood (70 min after administration): 9.85 (0.55) % injected activity per gram
Radioactivity, Bone (70 min after administration): 2.22 (0.60) % injected activity per gram
Radioactivity, Brain (70 min after administration): 0.26 (0.02) % injected activity per gram
Radioactivity, Heart (70 min after administration): 3.66 (0.27) % injected activity per gram
Radioactivity, Kidney (70 min after administration): 11.02 (1.44) % injected activity per gram
Radioactivity, L. intestine (70 min after administration): 2.25 (0.27) % injected activity per gram
Radioactivity, Liver (70 min after administration): 3.72 (0.52) % injected activity per gram
Radioactivity, Lung (70 min after administration): 7.40 (0.85) % injected activity per gram
Radioactivity, Muscle (70 min after administration): 1.60 (0.16) % injected activity per gram
Radioactivity, Neck (70 min after administration): 0.05 (0.00) % injected activity
Radioactivity, Pancreas (70 min after administration): 1.95 (0.14) % injected activity per gram
Radioactivity, S. intestine (70 min after administration): 3.61 (0.36) % injected activity per gram
Radioactivity, Spleen (70 min after administration): 2.77 (0.39) % injected activity per gram
Radioactivity, Stomach (70 min after administration): 0.78 (0.17) % injected activity
Radioactivity, Tumor (70 min after administration): 10.79 (1.09) % injected activity per gram
Radioactivity, Blood (2 h after administration): 8.06 (0.39) % injected activity per gram
Radioactivity, Bone (2 h after administration): 3.04 (0.30) % injected activity per gram
Radioactivity, Heart (2 h after administration): 2.86 (0.31) % injected activity per gram
Radioactivity, Kidney (2 h after administration): 8.22 (0.51) % injected activity per gram
Radioactivity, L. intestine (2 h after administration): 2.35 (0.97) % injected activity per gram
Radioactivity, Liver (2 h after administration): 2.45 (0.21) % injected activity per gram
Radioactivity, Lung (2 h after administration): 5.67 (0.59) % injected activity per gram
Radioactivity, Muscle (2 h after administration): 1.96 (0.68) % injected activity per gram
Radioactivity, Neck (2 h after administration): 0.04 (0.02) % injected activity
Radioactivity, Pancreas (2 h after administration): 1.64 (0.14) % injected activity per gram
Radioactivity, S. intestine (2 h after administration): 2.42 (0.70) % injected activity per gram
Radioactivity, Spleen (2 h after administration): 2.34 (0.18) % injected activity per gram
Radioactivity, Stomach (2 h after administration): 0.81 (0.05) % injected activity
Radioactivity, Tumor (2 h after administration): 13.38 (1.48) % injected activity per gram
Radioactivity, Blood (4 h after administration): 3.04 (0.26) % injected activity per gram
Radioactivity, Bone (4 h after administration): 1.60 (0.14) % injected activity per gram
Radioactivity, Brain (4 h after administration): 0.18 (0.02) % injected activity per gram
Radioactivity, Heart (4 h after administration): 1.44 (0.10) % injected activity per gram
Radioactivity, Kidney (4 h after administration): 5.32 (0.35) % injected activity per gram
Radioactivity, L. intestine (4 h after administration): 4.03 (1.33) % injected activity per gram
Radioactivity, Liver (4 h after administration): 1.34 (0.05) % injected activity per gram
Radioactivity, Lung (4 h after administration): 3.34 (0.11) % injected activity per gram
Radioactivity, Muscle (4 h after administration): 0.61 (0.01) % injected activity per gram
Radioactivity, Neck (4 h after administration): 0.02 (0.00) % injected activity
Radioactivity, Pancreas (4 h after administration): 0.93 (0.26) % injected activity per gram
Radioactivity, S. intestine (4 h after administration): 3.03 (0.65) % injected activity per gram
Radioactivity, Spleen (4 h after administration): 2.18 (0.13) % injected activity per gram
Radioactivity, Stomach (4 h after administration): 0.75 (0.01) % injected activity
Radioactivity, Tumor (4 h after administration): 12.48 (0.95) % injected activity per gram
Radioactivity, Blood (12 h after administration): 2.71 (0.21) % injected activity per gram
Radioactivity, Bone (12 h after administration): 1.10 (0.24) % injected activity per gram
Radioactivity, Brain (12 h after administration): 0.12 (0.01) % injected activity per gram
Radioactivity, Heart (12 h after administration): 1.49 (0.11) % injected activity per gram
Radioactivity, Kidney (12 h after administration): 3.12 (0.14) % injected activity per gram
Radioactivity, L. intestine (12 h after administration): 0.89 (0.06) % injected activity per gram
Radioactivity, Liver (12 h after administration): 1.04 (0.12) % injected activity per gram
Radioactivity, Lung (12 h after administration): 3.50 (0.28) % injected activity per gram
Radioactivity, Muscle (12 h after administration): 0.54 (0.02) % injected activity per gram
Radioactivity, Neck (12 h after administration): 0.09 (0.03) % injected activity
Radioactivity, Pancreas (12 h after administration): 0.92 (0.08) % injected activity per gram
Radioactivity, S. intestine (12 h after administration): 1.01 (0.14) % injected activity per gram
Radioactivity, Spleen (12 h after administration): 1.41 (0.12) % injected activity per gram
Radioactivity, Stomach (12 h after administration): 0.72 (0.09) % injected activity
Radioactivity, Tumor (12 h after administration): 7.73 (0.76) % injected activity per gram
Radioactivity, Blood (24 h after administration): 2.21 (0.38) % injected activity per gram
Radioactivity, Bone (24 h after administration): 0.64 (0.16) % injected activity per gram
Radioactivity, Brain (24 h after administration): 0.26 (0.31) % injected activity per gram
Radioactivity, Heart (24 h after administration): 0.90 (0.31) % injected activity per gram
Radioactivity, Kidney (24 h after administration): 1.91 (0.38) % injected activity per gram
Radioactivity, L. intestine (24 h after administration): 0.41 (0.24) % injected activity per gram
Radioactivity, Liver (24 h after administration): 0.73 (0.17) % injected activity per gram
Radioactivity, Lung (24 h after administration): 2.31 (0.34) % injected activity per gram
Radioactivity, Muscle (24 h after administration): 0.32 (0.07) % injected activity per gram
Radioactivity, Neck (24 h after administration): 0.04 (0.01) % injected activity
Radioactivity, Pancreas (24 h after administration): 0.41 (0.12) % injected activity per gram
Radioactivity, S. intestine (24 h after administration): 0.46 (0.22) % injected activity per gram
Radioactivity, Spleen (24 h after administration): 1.22 (0.27) % injected activity per gram
Radioactivity, Stomach (24 h after administration): 0.61 (0.18) % injected activity
Radioactivity, Tumor (24 h after administration): 6.15 ± 0.20 % injected activity per gram and 6.15 (0.20) % injected activity per gram
Radioactivity excreted, Feces (until 24 h postinjection): 4.09 ± 1.69 % injected activity and 4.09 (1.69) % injected activity
Radioactivity excreted, Urine (until 24 h postinjection): 38.98 ± 5.39 % injected activity and 38.98 (5.39) % injected activity
